This is an account of results in patent US20230203043A1, “NOVEL IMIDAZOPYRAZINE DERIVATIVES” (Hoffmann-La Roche Inc., priority 2020, published 2023).

Structures can show the parent of a compound that is named as a salt.

One assay deals with Acinetobacter baumannii ATCC17961. As to the kind of experiment: Antimicrobial susceptibility testing: 90% growth inhibitory concentration (IC90) determination in Iso-Sensitest broth, OD600 growth. The class given is cell-based. The note with it: Acinetobacter baumannii, ATCC17961, 16 h, read-out: A. baumannii ATCC 17961 IC90 (uM), strain ATCC 17961, OD600 growth over 16 h. An outline of the steps: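 Serial twofold dilution, 10 points, e.g. 50–0.097 μM final; ~5×10^(5) CFU/ml; 35±2° C, 16 h; kinetic OD600 every 20 min; IC90 from log-phase inhibition.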
In general, IC90 refers to the point of the concentration-response curve where the effect stands at 90%. Take `CCc1cc(Nc2nccn3c(-c4cn(CC#N)nc4C(F)(F)F)cnc23)ccc1C(=O)N1CCC(O)(CNC)CC1` [Example 219, 2-[4-[8-[3-ethyl-4-[4-hydroxy-4-(methylaminomethyl)piperidine-1-carbonyl]anilino]imidazo[1,2-a]pyrazin-3-yl]-3-(trifluoromethyl)pyrazol-1-yl]acetonitrile formate]: the concentration for an effect of 90% (IC90) turned out to be 0.599 µM.
Same read-out and setting: in the case of `N[C@H]1CC[C@H](C(=O)N2CCN(C(=O)c3ccc(Nc4nccn5c(-c6cn(CC(F)F)nc6C(F)(F)F)cnc45)cc3Cl)CC2)C1` [Example 583, (4-((1S,3S)-3-aminocyclopentane-1-carbonyl)piperazin-1-yl) (2-chloro-4-((3-(1-(2,2-difluoroethyl)-3-(trifluoromethyl)-1H-pyrazol-4-yl)imidazo[1,2-a]pyrazin-8-yl)amino)phenyl) methanone formate] it was 0.347 µM; in that of `N#CCn1cc(-c2cnc3c(Nc4ccc(C(=O)N5CCN(C(=O)CC6CCNCC6)CC5)c(Cl)c4)nccn23)c(C(F)(F)F)n1` [Example 572, 2-(4-(8-((3-chloro-4-(4-(2-(piperidin-4-yl)acetyl)piperazine-1-carbonyl)phenyl)amino)imidazo[1,2-a]pyrazin-3-yl)-3-(trifluoromethyl)-1H-pyrazol-1-yl)acetonitrile formate], 0.291 µM.
Same read-out and setting: then `CCc1cc(Nc2nccn3c(-c4cn(CC(F)F)nc4C(F)(F)F)cnc23)ccc1C(=O)NCCCNC(=O)[C@@H]1CC[C@H](N)C1` [Example 543, N-(3-((1R,3S)-3-aminocyclopentane-1-carboxamido)propyl)-4-((3-(1-(2,2-difluoroethyl)-3-(trifluoromethyl)-1H-pyrazol-4-yl)imidazo[1,2-a]pyrazin-8-yl)amino)-2-ethylbenzamide formate], with 0.162 µM; and `NCCNC(=O)CNC(=O)c1ccc(Nc2nccn3c(-c4cn(CC(F)F)nc4C(F)(F)F)cnc23)cc1Cl` [Example 117, N-[2-(2-aminoethylamino)-2-oxoethyl]-2-chloro-4-[[3-[1-(2,2-difluoroethyl)-3-(trifluoromethyl)pyrazol-4-yl]imidazo[1,2-a]pyrazin-8-yl]amino]benzamide formate], with 0.338 µM.
On to `CNC(=O)c1ccc(Nc2nccn3c(-c4cn(CCCc5ccc(CN)cc5)nc4C(F)(F)F)cnc23)cc1Cl` [Example 594, 4-((3-(1-(3-(4-(aminomethyl)phenyl)propyl)-3-(trifluoromethyl)-1H-pyrazol-4-yl)imidazo[1,2-a]pyrazin-8-yl)amino)-2-chloro-N-methylbenzamide formate], for which the IC90 turned out to be 0.164 µM.
Same read-out and setting: then `CCc1cc(Nc2nccn3c(-c4cn(CC(F)F)nc4C(F)(F)F)cnc23)ccc1C(=O)NCC(CN)CCl` (stereo not drawn) [Example 558, N-(3-amino-2-(chloromethyl)propyl)-4-((3-(1-(2,2-difluoroethyl)-3-(trifluoromethyl)-1H-pyrazol-4-yl)imidazo[1,2-a]pyrazin-8-yl)amino)-2-ethylbenzamide formate], with 0.174 µM; and `CCc1cc(Nc2nccn3c(-c4cn(CCF)nc4C(F)(F)F)cnc23)ccc1C(=O)NCCOCCCN` [Example 610, N-(2-(3-aminopropoxy)ethyl)-2-ethyl-4-((3-(1-(2-fluoroethyl)-3-(trifluoromethyl)-1H-pyrazol-4-yl)imidazo [1,2-a]pyrazin-8-yl)amino)benzamide formate], with 0.099 µM; and `N#CCn1cc(-c2cnc3c(Nc4ccc(C(=O)NCC(=O)N5CC(N)C5)c(Cl)c4)nccn23)c(C(F)(F)F)n1` [Example 713, N-[2-(3-aminoazetidin-1-yl)-2-oxo-ethyl]-2-chloro-4-[[3-[1-(cyanomethyl)-3-(trifluoromethyl)pyrazol-4-yl]imidazo[1,2-a]pyrazin-8-yl]amino]benzamide formate], with 0.417 µM.

The assay is the same for the next values; noted with them: Acinetobacter baumannii, ATCC17961, 16 h, strain ATCC 17961, OD600 growth over 16 h, read-out: A. baumannii ATCC 17961 IC90.
Consider `CCc1cc(Nc2nccn3c(-c4cn(CC#N)nc4C(F)(F)F)cnc23)ccc1C(=O)NCCNC(=O)[C@@H]1CCCN1` [Example 3, (2S)—N-[2-[[4-[[3-[1-(cyanomethyl)-3-(trifluoromethyl)pyrazol-4-yl]imidazo[1,2-a]pyrazin-8-yl]amino]-2-ethylbenzoyl]amino]ethyl]pyrrolidine-2-carboxamide], for which the 90% effect concentration (IC90) came to 0.16 µM.
Regarding `CCc1cc(Nc2nccn3c(-c4c[nH]nc4C(F)(F)F)cnc23)ccc1C(=O)NCCCNCCCCNCCCN` [Example 270, N-[3-[4-(3-aminopropylamino)butylamino]propyl]-2-ethyl-4-[[3-[3-(trifluoromethyl)-1H-pyrazol-4-yl]imidazo[1,2-a]pyrazin-8-yl]amino]benzamide], the IC90 was 2.66 µM.
On the same count and under the same terms, then `O=C(N[C@H]1CCNC1)c1ccc(Nc2nccn3c(-c4c[nH]nc4C(F)(F)F)cnc23)cc1Cl` [Example 378, 2-chloro-N-[(3S)-pyrrolidin-3-yl]-4-[[3-[3-(trifluoromethyl)-1H-pyrazol-4-yl]imidazo[1,2-a]pyrazin-8-yl]amino]benzamide], with 0.562 µM; and `CCc1cc(Nc2nccn3c(-c4cn(CC(F)F)nc4C(F)(F)F)cnc23)ccc1C(=O)N[C@H](C)CNC(=O)[C@@H]1CCCN1` [Example 649, (S)-N-((R)-2-(4-((3-(1-(2,2-difluoroethyl)-3-(trifluoromethyl)-1H-pyrazol-4-yl)imidazo[1,2-a]pyrazin-8-yl)amino)-2-ethylbenzamido)propyl)pyrrolidine-2-carboxamide], with 0.247 µM; and `C#CCNC(=O)c1c(C)cc(Nc2nccn3c(-c4cn(CCF)nc4C(F)(F)F)cnc23)cc1F` [Example 42, 2-fluoro-4-[[3-[1-(2-fluoroethyl)-3-(trifluoromethyl)pyrazol-4-yl]imidazo[1,2-a]pyrazin-8-yl]amino]-6-methyl-N-prop-2-ynylbenzamide], with 0.354 µM.
Same read-out and setting: then `O=C(c1ccc(Nc2nccn3c(-c4c[nH]nc4C(F)(F)F)cnc23)cc1Cl)N1CCN(C(=O)[C@@H]2CCCN2)CC1` [Example 209, [2-chloro-4-[[3-[3-(trifluoromethyl)-1H-pyrazol-4-yl]imidazo[1,2-a]pyrazin-8-yl]amino]phenyl]-[4-[(2S)-pyrrolidine-2-carbonyl]piperazin-1-yl]methanone], with 0.105 µM; and `CCc1cc(Nc2nccn3c(-c4cn(CC(F)F)nc4C(F)(F)F)cnc23)ccc1C(=O)N1CCC1(CN)CCl` (stereo not drawn) [Example 560, (2-(aminomethyl)-2-(chloromethyl)azetidin-1-yl)(4-((3-(1-(2,2-difluoroethyl)-3-(trifluoromethyl)-1H-pyrazol-4-yl)imidazo[1,2-a]pyrazin-8-yl)amino)-2-ethylphenyl) methanone formate], with 0.836 µM.
On the same count and under the same terms, then `CCc1cc(Nc2nccn3c(-c4cn(CC(F)F)nc4C(F)(F)F)cnc23)ccc1C(=O)NCCOC[C@H](C)N` [Example 153, N-[2-[(2S)-2-aminopropoxy]ethyl]-4-[[3-[1-(2,2-difluoroethyl)-3-(trifluoromethyl)pyrazol-4-yl]imidazo[1,2-a]pyrazin-8-yl]amino]-2-ethylbenzamide], with 0.311 µM; and `CCc1cc(Nc2nccn3c(-c4cn(CCN)nc4C(F)(F)F)cnc23)ccc1C(=O)NC` [Example 283, 4-[[3-[1-(2-aminoethyl)-3-(trifluoromethyl)pyrazol-4-yl]imidazo[1,2-a]pyrazin-8-yl]amino]-2-ethyl-N-methylbenzamide], with 1.56 µM.
On to `O=C(NC1CNC1)c1ccc(Nc2nccn3c(-c4c[nH]nc4C(F)(F)F)cnc23)cc1Cl` [Example 406, N-(azetidin-3-yl)-2-chloro-4-[[3-[3-(trifluoromethyl)-1H-pyrazol-4-yl]imidazo[1,2-a]pyrazin-8-yl]amino]benzamide], for which the 90% effect concentration (IC90) turned out to be 1.4 µM.
Still for that read-out and setting: in the case of `CCc1cc(Nc2nccn3c(-c4c[nH]nc4C(F)(F)F)cnc23)ccc1C(=O)N1CCN(C(=O)C2(O)CCNCC2)CC1` [Example 355, [2-ethyl-4-[[3-[3-(trifluoromethyl)-1H-pyrazol-4-yl]imidazo[1,2-a]pyrazin-8-yl]amino]phenyl]-[4-(4-hydroxypiperidine-4-carbonyl)piperazin-1-yl]methanone hydrochloride] it was 1.3 µM.
For `CCc1cc(Nc2nccn3c(-c4cn(COC)nc4C(F)F)cnc23)ccc1C(=O)N1CCN(C(=O)CN)CC1` [Example 771, 2-amino-1-(4-(4-((3-(3-(difluoromethyl)-1-(methoxymethyl)-1H-pyrazol-4-yl)imidazo[1,2-a]pyrazin-8-yl)amino)-2-ethylbenzoyl)piperazin-1-yl)ethan-1-one], the concentration for an effect of 90% (IC90) came to 0.953 µM.
On to `N#CCn1cc(-c2cnc3c(Nc4ccc(C(=O)N5CCN(C(=O)[C@@H]6CC[C@H](N)C6)CC5)c(Cl)c4)nccn23)c(C(F)(F)F)n1` [Example 194, 2-[4-[8-[4-[4-[(1R,3S)-3-aminocyclopentanecarbonyl]piperazine-1-carbonyl]-3-chloroanilino]imidazo[1,2-a]pyrazin-3-yl]-3-(trifluoromethyl)pyrazol-1-yl]acetonitrile formate], for which the concentration for an effect of 90% (IC90) turned out to be 0.274 µM.
As to `O=C(c1ccc(Nc2nccn3c(-c4cn(C(F)F)nc4C(F)(F)F)cnc23)cc1Cl)N1CC2(C1)CN(C(=O)[C@@H]1CCCN1)C2` [Example 763, (S)-(2-chloro-4-((3-(1-(difluoromethyl)-3-(trifluoromethyl)-1H-pyrazol-4-yl)imidazo[1,2-a]pyrazin-8-yl)amino)phenyl)(6-prolyl-2,6-diazaspiro[3.3]heptan-2-yl)methanone], the IC90 is 0.75 µM.
Consider `C#CCNCCCNC(=O)c1ccc(Nc2nccn3c(-c4c[nH]nc4C(F)(F)F)cnc23)cc1CC` [Example 184, 2-ethyl-N-[3-(prop-2-ynylamino)propyl]-4-[[3-[3-(trifluoromethyl)-1H-pyrazol-4-yl]imidazo[1,2-a]pyrazin-8-yl]amino]benzamide], for which the 90% effect concentration (IC90) stood at 0.4 µM.
